# Measurements published in patent publication US8329669B2, “Composition and method for treatment of tumors” (Sanofi, priority 2006, dated 2012).
# B1: FasL: Fas Ligand, TNFα family member which signals through Death Receptors (protein, UniProt P48023 130-281, looked up)
# Tumor necrosis factor ligand …: QIGHPSPPPEKKELRKVAHLTGKSNSRSMPLEWEDTYGIVLLSGVKYKKGGLVINETGLYFVYSKVYFRGQSCNNLPLSHKVYMRNSKYPQDLVMMEGKMMSYCTTGQMWARSSYLGAVFNLTSADHLYVNVSELSLVNFEESQTFFGLYKL
# Key:
# Assay type in all cases: cell-based
# HCT116 cells [1] = test: Cell-Titer Blue viability of cells expressing YFP or full length Core 1 treated with apoptosis inducers
# Procedure: To determine whether Core 1 protected against apoptosis induced by TRAIL or through other pathways, cells were treated with several different apoptosis inducers and assayed for cell viability. Fas Ligand (FasL), also a TNFα family member which signals through Death Receptors, uses the same adaptor protein FADD to induce caspase activation and apoptosis. Cells stably expressing either yellow florescent protein (YFP) or human full length Core 1 were treated with 100 ng/ml of TRAIL or 16 ng/ml of FasL for 24 hours. Cell viability was assayed using the Cell-Titer Blue assay, where conversion of the indicator dye resazurin is used to measure the metabolic capacity of cells, an indicator of cell viability. […] Cells were then treated with two compounds which induce apoptosis through non-death receptor pathways. Camptothecin inhibits DNA topoisomerase 1, ultimately leading to DNA damage and death, while Taxotere is an inhibitor of microtubule depolymerization, which prevents cell division and leads to mitotic death.
# HCT116 cells [2] = test: Western blot for caspase activation upon TRAIL stimulation; conditions: full length Core 1 vs YFP expressing HCT116; 200 ng/ml TRAIL, 24 hours
# Procedure: Cells stably expressing YFP or human full length Core 1 were treated for 24 hours with 200 ng/ml TRAIL, lysed, and western blotted with antibodies to several caspases. Caspase activation was detected by the cleavage of the full length pro-caspase to the smaller, active form. […] Thus, Core 1 expression inhibits the full activation of caspases 8, 9, and 3 upon TRAIL stimulation.
# HCT116 cells [3] = test: Annexin V apoptosis assay (FACS) after TRAIL treatment; conditions: 50 ng/ml TRAIL
# Procedure: To further characterize the ability of Core 1 to protect against TRAIL-induced apoptosis, the pEYK vector containing the partial cDNA of UQCRC1 isolated from the screen was used to directly infect HCT116 cells. Cells expressing dominant-negative FADD (dnFADD), which inhibits the signal from the TRAIL receptors, was used as a control. Cells were treated for 48 hours with 0, 10 or 50 ng/mL of TRAIL and assayed for Annexin V, an early marker of apoptosis [FIG. 2A]. Expression of dnFADD inhibited TRAIL-induced apoptosis, with 78% of cells Annexin V negative or non-apoptotic at 50 ng/ml TRAIL.
# To confirm that the protection observed from the partial Core 1 protein is indicative of its function, the full length human Core 1 protein was cloned into the pLenti-vector (containing a HA-tag) and used to infect HCT116 to produce a stable cell line expressing Core 1. A control cell line was prepared similarly to express Yellow Fluorescent Protein (YFP). To confirm the protein expression of full length Core 1, cells were homogenized to prepare a mitochondrial and cytoplasmic lysate and western blotted with antibodies to Core 1 [FIG. 2C]. The endogenous Core 1 is detected in the mitochondrial fraction of both YFP and Core 1 expressing cells. Exogenously expressed Core 1 is HA-tagged and is detected as a higher migrating band in the mitochondrial fraction, as well as the cytoplasmic fraction. […] Thus, Core 1 is expressed in these HCT116 stable cell lines. To determine if full length Core 1 also protects against TRAIL-induced apoptosis, cells were treated with TRAIL and assayed for apoptosis by FACS analysis for cells that were Annexin V positive or negative.
# HCT116 cells [4] = test: JC-1 mitochondrial membrane potential assay (FACS)
# Procedure: As Core 1 is a subunit of the mitochondrial respiratory Complex III, work was conducted to determine whether expression of Core 1 protects against mitochondrial depolarization, a critical step in mitochondrial mediated apoptosis. Changes in mitochondrial membrane potential during TRAIL treatment were studied using the JC-1 Assay Kit (Molecular Probes). JC-1 (5, 5′,6,6′,-tetrachloro-1,1′,3,3′-tetraethylbenzimidazolylcarbocyanine) is a cationic dye which has a diffuse green fluorescence in the cytoplasm. The accumulation of JC-1 in the mitochondria, which depends on intact, polarized mitochondria, results in the formation of red fluorescent aggregates. The ratio of green to red fluorescence was measured for the cells described in Example 2 above by Fluorescence-activated Cell Sorter (FACS) analysis. FACS is a method to sort cells based on specific cellular surface markers (e.g., red or green fluorescence). The above ratio is plotted as a percentage of polarized mitochondria.
# HCT116 cells [5] = test: Cytochrome c release into the cytoplasmic fraction (ELISA); conditions: 100 ng/ml TRAIL, 24 hours
# Procedure: HCT116 cells stably expressing YFP or human full length Core 1 were treated with 100 ng/ml TRAIL for 24 hours. Control cells stably expressing YFP or human full length Core 1 were not treated with TRAIL. The cells were then harvested. Media containing floating cells was first removed to new tubes. The remaining adherent cells were detached using a cell scraper in ice-cold PBS and added to the media containing floating cells. The cells were pelleted by centrifuging at 1000×g for 10 minutes at 4° C. and resuspended in an iso-osmotic buffer (0.3M sucrose, 10 mM Tris pH 7.5, 1 mM EDTA, EDTA-free protease tablet). After a five minute incubation on ice, the cells were lysed using dounce homogenizers until about 90% of the plasma membranes were lysed. This was done to isolate the cytoplasmic fraction. The extent of cell lysis was monitored by mixing 10 μl of lysate with trypan blue and viewed on a hemocytometer. […] The concentration of lysates was determined using either the BioRad DC protein assay (BioRad) or the BCA method (Pierce, Rockford, Ill.). To quantitatively detect cytochrome c levels, lysates were assayed for cytochrome c using a Function ELISA cytochrome c kit (Active Motif, Carlsbad, Calif.) [FIG. 3B]. In untreated cells, low baseline levels of cytochrome c were detected in the cytoplasm.
molecule,measurement,setting,value
CC[C@@]1(O)C(=O)OCc2c1cc1n(c2=O)Cc2cc3ccccc3nc2-1 [Camptothecin],difference in viability between cells expressing YFP or full length Core 1,HCT116 cells [1]; 200 nM Camptothecin in dimethyl sulfoxide,No difference in viability
CC(=O)O[C@@]12CO[C@@H]1C[C@H](O)[C@@]1(C)C(=O)[C@H](O)C3=C(C)[C@@H](OC(=O)[C@H](O)[C@@H](NC(=O)OC(C)(C)C)c4ccccc4)C[C@@](O)([C@@H](OC(=O)c4ccccc4)[C@H]21)C3(C)C [Taxotere],difference in viability between cells expressing YFP or full length Core 1,HCT116 cells [1]; 10 nM Taxotere in dimethyl sulfoxide,No difference in viability
"TRAIL: recombinant human TRAIL (BioMol), member of the TNF superfamily that induces apoptosis",caspase 8 activation,HCT116 cells [2],less active caspase 8
same,caspase 9 and caspase 3 activation,HCT116 cells [2],reduced activation
same,cells Annexin V negative,"HCT116 cells [3]; HCT116 expressing GFP, 48 hours",2%
same,cells Annexin V negative or non-apoptotic,"HCT116 cells [3]; HCT116 expressing dnFADD, 48 hours",78%
same,cells Annexin V negative,"HCT116 cells [3]; HCT116 expressing partial Core 1, 48 hours",14.5%
same,protection against TRAIL-induced apoptosis,HCT116 cells [3]; full length Core 1 vs YFP expressing cells,2.5 fold
same,increase in protection from TRAIL induced apoptosis,HCT116 cells [3]; partial Core 1 vs GFP expressing cells,7 fold
same,polarized mitochondria remaining,"HCT116 cells [4]; HCT116 expressing GFP, 50 ng/ml TRAIL",7%
same,mitochondrial depolarization,"HCT116 cells [4]; HCT116 expressing dnFADD, all concentrations of TRAIL",completely protected
same,polarized mitochondria,"HCT116 cells [4]; HCT116 expressing partial Core 1, 50 ng/ml TRAIL",38%
same,protection from mitochondrial depolarization over GFP,"HCT116 cells [4]; partial Core 1 vs GFP expressing cells, 50 ng/ml TRAIL",5 fold
same,increase in cytochrome c released into the cytoplasmic fraction,"HCT116 cells [5]; HCT116 expressing YFP, vs untreated",10 fold
same,"cytochrome c released, relative to YFP cells",HCT116 cells [5]; HCT116 expressing full length Core 1,only one-half as much
B1,protection from FasL induced apoptosis by Core 1 expression,"HCT116 cells [1]; Core 1 vs YFP expressing cells, 16 ng/ml FasL, 24 hours",about a three-fold protection
